According to publication PMC5285354, “Cationic Net Charge and Counter Ion Type as Antimicrobial Activity Determinant Factors of Short Lipopeptides” (Frontiers in Microbiology, 2017):
Where a SMILES comes first, the peptide text is derived from it. The star is where a group is joined. Lauroyl = CCCCCCCCCCCC(=O)*

Assays:
Assay type in all cases: cell-based
[1] = tested on: Pseudomonas aeruginosa (ATCC 9027); conditions: ATCC 9027, 18 h
Procedure, shortened: (§1)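 MIC in μg/mL, read as the lowest lipopeptide level with no observable growth. Microbroth dilution followed CLSI guidance, using MH broth, 10^5 cfu/mL and 18 h at 37°C for bacterial strains, or Sabouraud Dextrose broth, 10^3 cfu/mL and 48 h at 25°C for yeasts.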

[2] = tested on: Candida tropicalis (PCM 2681); conditions: PCM 2681, 48 h
Procedure, shortened: as §1

[3] = tested on: Staphylococcus aureus (ATCC 25923); conditions: for MIC Staphylococcus aureus: ATCC 25923, 18 h; for MBC Staphylococcus aureus: ATCC 25923, 24 h
Procedure, shortened: as §1

[4] = tested on: Bacillus subtilis (ATCC 6633); conditions: for MIC Bacillus subtillis: ATCC 6633, 18 h; for MBC Bacillus subtillis: ATCC 6633, 24 h
Procedure, shortened: (§2)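 Lowest lipopeptide concentration (μg/mL) with no observable growth gave the MIC, alongside MBC/MFC, by CLSI microbroth dilution. Fungi: Sabouraud dextrose broth, 10^3 cfu/mL start, 25°C for 48 h; bacteria: MH broth, 10^5 cfu/mL, 37°C for 18 h. Run in triplicate, three separate days.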

[5] = tested on: Candida albicans (ATCC 10231); conditions: ATCC 10231, 48 h
Procedure, shortened: as §1

[6] = tested on: Klebsiella pneumoniae (ATCC 700603); conditions: for MIC Klebsiella pneumoniae: ATCC 700603, 18 h; for MBC Klebsiella pneumoniae: ATCC 700603, 24 h
Procedure, shortened: as §1

[7] = tested on: Aspergillus brasiliensis (ATCC 16404); conditions: ATCC 16404, 48 h
Procedure, shortened: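 CLSI broth microdilution: bacteria in Mueller-Hinton broth at 10^5 cfu/mL inoculum, 18 h at 37°C; fungi in Sabouraud Dextrose broth at 10^3 cfu/mL, 48 h at 25°C. MIC (μg/mL) is the lowest lipopeptide concentration inhibiting visible growth; triplicate on three days.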

[8] = tested on: Staphylococcus epidermidis (PCM 2118); conditions: for MIC Staphylococcus epidermidis: PCM 2118, 18 h; for MBC Staphylococcus epidermidis: PCM 2118, 24 h
Procedure, shortened: as §2

[9] = tested on: Proteus vulgaris (PCM 2668); conditions: for MBC Proteus vulgaris: PCM 2668, TFA salt, subculture on Mueller-Hinton II Agar, 24 h 37°C, triplicate
Procedure, shortened: as §1

[10] = tested on: Escherichia coli (ATCC 25922); conditions: for MIC Escherichia coli: ATCC 25922, 18 h; for MBC Escherichia coli: ATCC 25922, 24 h
Procedure, shortened: as §1

[11] = tested on: Enterococcus faecalis (ATCC 29212); conditions: for MIC Enterococcus fecalis: ATCC 29212, 18 h; for MBC Enterococcus fecalis: ATCC 29212, 24 h
Procedure, shortened: as §2

[12] = tested on: Pseudomonas aeruginosa (ATCC 9027); conditions: ATCC 9027, 24 h
human red blood cells = conditions: 1 h
Procedure: The hemolytic activity of the lipopeptides was determined by exposing human red blood cells (4% v/v) to tested compounds at graded concentrations. Red blood cells were obtained from a healthy donor. EDTA was used to prevent the blood clotting. The plasma was removed via centrifugation and the erythrocytes were washed three times with PBS. The red blood cells were suspended in PBS and incubated with different concentrations of lipopeptides at 37°C for 1 h and centrifuged for 5 min at 1000 × g. The supernatants were transferred to a sterile 96-well plate and hemoglobin release was measured with an Epoch microplate spectrophotometer (BioTek, USA) by recording the absorbance at 550 nm. A 0.1% Triton X-100 solution was used as the positive control (100% of hemolysis) and pure PBS as the negative (0% of hemolysis). Minimum hemolytic concentration (MHC) was taken as the lowest concentration which induced 10% of hemolysis.

CCCCCCCCCCCC(=O)N[C@@H](CCCCN)C(N)=O [C12-K-NH2]
1000 µg/mL: Hemolysis HC10 (MHC), concentration of lipopeptide inducing 10% of hemolysis (human red blood cells)
>512 µg/mL: MIC Proteus vulgaris ([9]; 18 h)
256 µg/mL: MIC Candida tropicalis [2] | MIC Staphylococcus aureus [3] | MBC Staphylococcus aureus [3] | MBC Bacillus subtillis [4] | MIC Candida albicans [5] | MIC Klebsiella pneumoniae [6] | MBC Klebsiella pneumoniae [6] | MIC Aspergillus brasiliensis [7] | MIC Escherichia coli [10] | MBC Escherichia coli [10] | MIC Enterococcus fecalis [11] | MBC Enterococcus fecalis [11] | MBC Pseudomonas aeruginosa [12]
>1000 µg/mL: MBC Proteus vulgaris [9]
128 µg/mL: MIC Pseudomonas aeruginosa [1] | MIC Bacillus subtillis [4] | MIC Staphylococcus epidermidis [8] | MBC Staphylococcus epidermidis [8]
512 µg/mL: MFC Candida tropicalis [2] | MFC Candida albicans [5] | MFC Aspergillus brasiliensis [7]

CCCCCCCCCCCC(=O)N[C@@H](CCCCN)C(=O)NCC(N)=O [C12-KG-NH2] (Lauroyl-Lys-Gly-NH2)
1000 µg/mL: Hemolysis HC10 (MHC), concentration of lipopeptide inducing 10% of hemolysis (human red blood cells)
512 µg/mL: MFC Candida tropicalis [2] | MIC Candida tropicalis [2] | MBC Staphylococcus aureus [3] | MFC Candida albicans [5] | MIC Candida albicans [5] | MBC Klebsiella pneumoniae [6] | MFC Aspergillus brasiliensis [7] | MBC Escherichia coli [10] | MBC Pseudomonas aeruginosa [12]
128 µg/mL: MIC Bacillus subtillis [4] | MIC Staphylococcus epidermidis [8] | MBC Staphylococcus epidermidis [8]
256 µg/mL: MIC Pseudomonas aeruginosa [1] | MIC Staphylococcus aureus [3] | MBC Bacillus subtillis [4] | MIC Klebsiella pneumoniae [6] | MIC Aspergillus brasiliensis [7] | MIC Escherichia coli [10] | MIC Enterococcus fecalis [11] | MBC Enterococcus fecalis [11]
>2000 µg/mL: MBC Proteus vulgaris [9]
